Measurements published in the supplement of paper PMC10307832.

Columns and labels:
Assay in all cases: relative viability (nuclei count vs DMSO), 5 days (fraction); higher = more cells survive
201T = system: 201T
In short: (§1)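 Lung cancer cell lines in 1536-well plates got either a single drug or a fixed anchor-drug dose together with five library-drug doses (not always all listed) in √10 steps, by pin tool, on the day after seeding. Nuclei were counted after 5 days, and relative viability is the treated-to-vehicle ratio of nuclei counts. Values are medians of duplicate plates.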

EPLC-272H = system: EPLC-272H
In short: as §1

H3255 = system: H3255
In short: as §1

HCC-44 = system: HCC-44
In short: as §1

LOU-NH91 = system: LOU-NH91
In short: as §1

NCI-H1734 = system: NCI-H1734
In short: as §1

NCI-H1793 = system: NCI-H1793
In short: as §1

NCI-H1993 = system: NCI-H1993
In short: as §1

NCI-H2085 = system: NCI-H2085
In short: as §1

NCI-H2170 = system: NCI-H2170
In short: as §1

NCI-H2347 = system: NCI-H2347
In short: as §1

NCI-H2405 = system: NCI-H2405
In short: as §1

NCI-H3122 = system: NCI-H3122
In short: as §1

NCI-H441 = system: NCI-H441
In short: as §1

NCI-H647 = system: NCI-H647
In short: as §1

PC-14 = system: PC-14
In short: as §1

RERF-LC-KJ = system: RERF-LC-KJ
In short: as §1

SW 900 = system: SW 900
In short: as §1

O=C(O)c1ccc(-c2c[nH]c3ncc(-c4ccccc4)cc23)cc1C1CCCC1 + NC(=O)Nc1cc(-c2cccc(F)c2)sc1C(=O)N[C@H]1CCCNC1 [AZD7762] (partner 0.2 µM)
relative viability (201T; first compound 0.04 µM): 0.599
relative viability (201T; first compound 0.1265 µM): 0.654
relative viability (201T; first compound 0.4 µM): 0.664
relative viability (201T; first compound 1.265 µM): 0.663
relative viability (EPLC-272H; first compound 0.04 µM): 0.246
relative viability (EPLC-272H; first compound 0.1265 µM): 0.32
relative viability (EPLC-272H; first compound 0.4 µM): 0.21
relative viability (EPLC-272H; first compound 1.265 µM): 0.246
relative viability (H3255; first compound 0.04 µM): 0.79
relative viability (H3255; first compound 0.1265 µM): 0.991
relative viability (H3255; first compound 0.4 µM): 0.953
relative viability (H3255; first compound 1.265 µM): 0.88
relative viability (HCC-44; first compound 0.04 µM): 1.07
relative viability (HCC-44; first compound 0.1265 µM): 1.03
relative viability (HCC-44; first compound 0.4 µM): 1.01
relative viability (HCC-44; first compound 1.265 µM): 0.946
relative viability (LOU-NH91; first compound 0.04 µM): 0.818
relative viability (LOU-NH91; first compound 0.1265 µM): 0.866
relative viability (LOU-NH91; first compound 0.4 µM): 0.787
relative viability (LOU-NH91; first compound 1.265 µM): 0.769
relative viability (NCI-H1734; first compound 0.04 µM): 0.534
relative viability (NCI-H1734; first compound 0.1265 µM): 0.68
relative viability (NCI-H1734; first compound 0.4 µM): 0.606
relative viability (NCI-H1734; first compound 1.265 µM): 0.645
relative viability (NCI-H1793; first compound 0.04 µM): 0.513
relative viability (NCI-H1793; first compound 0.1265 µM): 0.752
relative viability (NCI-H1793; first compound 0.4 µM): 0.544
relative viability (NCI-H1793; first compound 1.265 µM): 0.798
relative viability (NCI-H1993; first compound 0.04 µM): 0.776
relative viability (NCI-H1993; first compound 0.1265 µM): 0.814
relative viability (NCI-H1993; first compound 0.4 µM): 0.832
relative viability (NCI-H1993; first compound 1.265 µM): 0.615
relative viability (NCI-H2085; first compound 0.04 µM): 0.944
relative viability (NCI-H2085; first compound 0.1265 µM): 1.09
relative viability (NCI-H2085; first compound 0.4 µM): 1.03
relative viability (NCI-H2085; first compound 1.265 µM): 0.871
relative viability (NCI-H2170; first compound 0.04 µM): 0.933
relative viability (NCI-H2170; first compound 0.1265 µM): 1.03
relative viability (NCI-H2170; first compound 0.4 µM): 0.895
relative viability (NCI-H2170; first compound 1.265 µM): 0.82
relative viability (NCI-H2347; first compound 0.04 µM): 0.821
relative viability (NCI-H2347; first compound 0.1265 µM): 0.935
relative viability (NCI-H2347; first compound 0.4 µM): 0.797
relative viability (NCI-H2347; first compound 1.265 µM): 0.878
relative viability (NCI-H2405; first compound 0.04 µM): 0.73
relative viability (NCI-H2405; first compound 0.1265 µM): 0.919
relative viability (NCI-H2405; first compound 0.4 µM): 0.767
relative viability (NCI-H2405; first compound 1.265 µM): 0.583
relative viability (NCI-H3122; first compound 0.04 µM): 0.97
relative viability (NCI-H3122; first compound 0.1265 µM): 1.04
relative viability (NCI-H3122; first compound 0.4 µM): 1.05
relative viability (NCI-H3122; first compound 1.265 µM): 0.999
relative viability (NCI-H441; first compound 0.04 µM): 1.01
relative viability (NCI-H441; first compound 0.1265 µM): 1.23
relative viability (NCI-H441; first compound 0.4 µM): 1.11
relative viability (NCI-H441; first compound 1.265 µM): 1.14
relative viability (NCI-H647; first compound 0.04 µM): 0.437
relative viability (NCI-H647; first compound 0.1265 µM): 0.55
relative viability (NCI-H647; first compound 0.4 µM): 0.489
relative viability (NCI-H647; first compound 1.265 µM): 0.408
relative viability (PC-14; first compound 0.04 µM): 0.335
relative viability (PC-14; first compound 0.1265 µM): 0.414
relative viability (PC-14; first compound 0.4 µM): 0.407
relative viability (PC-14; first compound 1.265 µM): 0.39
relative viability (RERF-LC-KJ; first compound 0.04 µM): 0.569
relative viability (RERF-LC-KJ; first compound 0.4 µM): 1.06
relative viability (RERF-LC-KJ; first compound 1.265 µM): 0.935
relative viability (SW 900; first compound 0.04 µM): 0.635
relative viability (SW 900; first compound 0.1265 µM): 0.648
relative viability (SW 900; first compound 0.4 µM): 0.755
relative viability (SW 900; first compound 1.265 µM): 0.598
